Measurements from article PMC6271988, “New Potentially Active Pyrazinamide Derivatives Synthesized Under Microwave Conditions” (Molecules, 2014).
In brackets after ≈: the same amount, converted by molar mass. Like-named read-outs stand apart in the source and are kept apart here.

Experiments:
[1] = system: spectrum of fungi tested (8 fungal strains); test: Antifungal evaluation, summary over the fungi tested; assay type: cell-based
Method: (§1) Antifungal evaluation was also accomplished with microdilution broth method. On the contrary, there was used RPMI 1640 broth with glutamine as medium and conditions were humid and dark atmosphere, pH 7.0 (adjusted with 0.165 M morpholinepropanesulfonic acid, MOPS) and 35 °C. 8 fungal strains were used (Candida albicans ATCC 44859, Candida tropicalis 156, Candida krusei E28, Candida glabrata 20/I, Trichosporon asahii 1188, Aspergillus fumigatus 231, Lichtheimia corymbifera 272, Trichophyton mentagrophytes 445) together with four antimycotic standards amphotericin B, voriconazole, nystatin and fluconazole.

[2] = system: PET in spinach chloroplasts; test: Photosynthetic electron transport (PET) inhibition, DCPIP photoreduction; assay type: biochemical, Spinacia oleracea L.; details: for IC50: DCPIP photoreduction
Method: The inhibition of photosynthetic electron transport (PET) in spinach chloroplasts was determined spectrophotometrically (Genesys 6, Thermo Scientific, Madison, WI, USA) using an artificial electron acceptor 2,6-dichlorophenol-indophenol (DCPIP). The rate of photosynthetic electron transport was monitored as a photoreduction of DCPIP. Chloroplasts were prepared from Spinacia oleracea L.. The measurements were carried out in phosphate buffer (0.02 mol/L, pH 7.2) containing sucrose (0.4 mol/L), MgCl2 (0.005 mol/L) and NaCl (0.015 mol/L). The chlorophyll concentration was 30 mg/L and the samples were irradiated (~100 W/m^2 with 10 cm distance) with a halogen lamp (250 W). […] The studied compound were dissolved in DMSO due to their limited water solubility. […] The efficiency of studied compounds was expressed as 50% inhibition concentration relative to the untreated control. The standard for these measurements was DCMU (Diurone®).

[3] = Lipophilicity HPLC determination (logk); assay type: physicochemical; details: HPLC capacity factor, C18, MeOH 70%/H2O 30%, 30 °C
[4] = system: Candida albicans ATCC 44859; test: Antifungal evaluation, microdilution broth method; assay type: cell-based; details: Candida albicans, ATCC44859, CA
Method: as §1

[5] = system: Aspergillus fumigatus 231; test: Antifungal evaluation, microdilution broth method; assay type: cell-based; details: Aspergillus fumigatus, 231, AF
Method: as §1

Candida tropicalis 156 = test: Antifungal evaluation, microdilution broth method; assay type: cell-based; details: Candida tropicalis, 156, CT
Method: as §1

Candida glabrata 20/I = test: Antifungal evaluation, microdilution broth method; assay type: cell-based; details: Nakaseomyces glabratus, 20/I, CG
Method: as §1

[6] = system: Lichtheimia corymbifera 272; test: Antifungal evaluation, microdilution broth method; assay type: cell-based; details: Lichtheimia corymbifera, 272, LC
Method: as §1

Trichosporon asahii 1188 = test: Antifungal evaluation, microdilution broth method; assay type: cell-based; details: Trichosporon asahii, 1188, TA
Method: as §1

[7] = system: Trichophyton mentagrophytes 445; test: Antifungal evaluation, microdilution broth method; assay type: cell-based; details: Trichophyton mentagrophytes, 445, TM
Method: as §1

Candida krusei E28 = test: Antifungal evaluation, microdilution broth method; assay type: cell-based; details: Pichia kudriavzevii, E28, CK
Method: as §1

[8] = system: Mycobacterium tuberculosis H37Rv; test: Antimycobacterial in vitro screening, microdilution broth panel method, Alamar Blue; assay type: cell-based; details: 336 h, M. tuberculosis H37Rv, Middlebrook 7H9, 14 days of incubation
[9] = system: Staphylococcus epidermidis; test: Antibacterial in vitro screening, microdilution broth method; assay type: cell-based; details: 80% inhibition of control

With CCCCNc1nccnc1C(N)=O [Compound 4, 3-(Butylamino)pyrazine-2-carboxamide] the IC80 ([1]; fungi tested, less active than the standards, read-out: IC80 antifungal) was at least 250 µM, the IC50 [2] was 203 µM and the logk [3] was 0.2287.

With NC(=O)c1nccnc1N1CCOCC1 [Compound 16, 3-(Morpholin-4-yl)pyrazine-2-carboxamide] the “PET inhibition (result in words)” value [2] was “did not inhibit PET” and the logk [3] was −0.6238.

In the case of C[C@@H]1[C@H](O)[C@@H](C)/C=C/C=C/C=C/C=C/C=C/C=C/C=C/[C@H](O[C@@H]2O[C@H](C)[C@@H](O)[C@H](N)[C@@H]2O)C[C@@H]2O[C@](O)(C[C@@H](O)C[C@@H](O)[C@H](O)CC[C@@H](O)C[C@@H](O)CC(=O)O[C@H]1C)C[C@H](O)[C@H]2C(=O)O [AMP, amphotericin B], the IC80 ([4]; 24 h) is reported as 0.12 µM, the IC80 ([4]; 48 h) is reported as 0.49 µM and the IC80 ([5]; 24 h) is reported as 1.95 µM. The IC80 ([5]; 48 h) was 1.95 µM, the IC80 (Candida tropicalis 156; 24 h) was 1.95 µM and the IC80 (Candida tropicalis 156; 48 h) was 1.95 µM. The IC80 (Candida glabrata 20/I; 24 h) was 0.98 µM, the IC80 (Candida glabrata 20/I; 48 h) was 1.95 µM and the IC80 ([6]; 24 h) was 7.81 µM. For the same molecule, the IC80 ([6]; 48 h) was 7.81 µM, the IC80 (Trichosporon asahii 1188; 24 h) was 0.49 µM and the IC80 (Trichosporon asahii 1188; 48 h) was 0.98 µM. It also gave an IC80 ([7]; 72 h) of 1.95 µM, an IC80 ([7]; 120 h) of 1.95 µM and an IC80 (Candida krusei E28; 24 h) of 1.95 µM. It also gave an IC80 (Candida krusei E28; 48 h) of 1.95 µM.

With CCNc1nccnc1C(N)=O [Compound 2, 3-(Ethylamino)pyrazine-2-carboxamide] the “PET inhibition (result in words)” value [2] was “did not inhibit PET” and the logk [3] was −0.2014.

In the case of CCCNc1nccnc1C(N)=O [Compound 3, 3-(Propylamino)pyrazine-2-carboxamide], the IC50 [2] is reported as 1590 µM and the logk [3] is reported as 0.0038.

Molecule NNC(=O)c1ccncc1 [isoniazid] has an MIC [8] of 0.39 µg/mL (≈ 2.84 µM).

For CN(C)C(=O)Nc1ccc(Cl)c(Cl)c1 [DCMU, 3-(3,4-dichlorophenyl)-1,1-dimethylurea, reference compound], the IC50 [2] was 1.9 µM.

In the case of C[C@@H](c1ncncc1F)[C@](O)(Cn1cncn1)c1ccc(F)cc1F [VOR, voriconazole], the IC80 ([4]; 24 h) is reported as 0.008 µM, the IC80 ([4]; 48 h) is reported as 0.008 µM and the IC80 ([5]; 24 h) is reported as 0.49 µM. The IC80 ([5]; 48 h) was 0.98 µM, the IC80 (Candida tropicalis 156; 24 h) was 250 µM and the IC80 (Candida tropicalis 156; 48 h) was 250 µM. The IC80 (Candida glabrata 20/I; 24 h) was 250 µM, the IC80 (Candida glabrata 20/I; 48 h) was 250 µM and the IC80 ([6]; 24 h) was 250 µM. For the same molecule, the IC80 ([6]; 48 h) was 250 µM, the IC80 (Trichosporon asahii 1188; 24 h) was 7.81 µM and the IC80 (Trichosporon asahii 1188; 48 h) was 31.2 µM. It also gave an IC80 ([7]; 72 h) of 0.06 µM, an IC80 ([7]; 120 h) of 0.12 µM and an IC80 (Candida krusei E28; 24 h) of 0.98 µM. The IC80 (Candida krusei E28; 48 h) was 1.95 µM.

OC(Cn1cncn1)(Cn1cncn1)c1ccc(F)cc1F [FLU, fluconazole] gave an IC80 ([4]; 24 h) of 0.24 µM, an IC80 ([4]; 48 h) of 0.24 µM and an IC80 ([5]; 24 h) of over 500 µM. For the same molecule, the IC80 ([5]; 48 h) was over 500 µM, the IC80 (Candida tropicalis 156; 24 h) was over 500 µM and the IC80 (Candida tropicalis 156; 48 h) was over 500 µM. It also gave an IC80 (Candida glabrata 20/I; 24 h) of 31.2 µM, an IC80 (Candida glabrata 20/I; 48 h) of 250 µM and an IC80 ([6]; 24 h) of over 500 µM. It also gave an IC80 ([6]; 48 h) of over 500 µM, an IC80 (Trichosporon asahii 1188; 24 h) of 250 µM and an IC80 (Trichosporon asahii 1188; 48 h) of 500 µM. For the same molecule, the IC80 ([7]; 72 h) was 7.81 µM, the IC80 ([7]; 120 h) was 125 µM and the IC80 (Candida krusei E28; 24 h) was 125 µM. It also gave an IC80 (Candida krusei E28; 48 h) of 250 µM.

With CCCCN(CCCC)c1nccnc1C(N)=O [Compound 10, 3-(Dibutylamino)pyrazine-2-carboxamide] the “PET inhibition (result in words)” value [2] was “did not inhibit PET” and the logk [3] was 0.5197.

For CCC(C)(C)Nc1nccnc1C(N)=O [Compound 6, 3-(tert-Pentylamino)pyrazine-2-carboxamide], the IC50 [2] was 480 µM and the logk [3] was 0.5468.

Molecule NC(=O)c1nccnc1NC1CCCCCC1 [Compound 13, 3-(Cycloheptylamino)pyrazine-2-carboxamide] has an IC80 ([1]; nearly a whole spectrum of fungi tested, after 24 h of incubation, read-out: 80% inhibition of control (IC80), range over fungi) of 7.81 to 31.2 µM, an IC80 [9] of under 250 µM and an IC50 [2] of 19.3 µM. The logk [3] was 0.6575, the IC80 ([4]; 24 h) was 15.6 µM and the IC80 ([4]; 48 h) was 31.2 µM. It also gave an IC80 ([5]; 24 h) of 7.81 µM, an IC80 ([5]; 48 h) of 7.81 µM and an IC80 (Candida tropicalis 156; 24 h) of 62.5 µM. It also gave an IC80 (Candida tropicalis 156; 48 h) of 500 µM, an IC80 (Candida glabrata 20/I; 24 h) of 7.81 µM and an IC80 (Candida glabrata 20/I; 48 h) of 15.6 µM. For the same molecule, the IC80 ([6]; 24 h) was 62.5 µM, the IC80 ([6]; 48 h) was 250 µM and the IC80 (Trichosporon asahii 1188; 24 h) was 31.2 µM. It also gave an IC80 (Trichosporon asahii 1188; 48 h) of 125 µM, an IC80 ([7]; 72 h) of 15.6 µM and an IC80 ([7]; 120 h) of 15.6 µM. It also gave an IC80 (Candida krusei E28; 24 h) of 7.81 µM and an IC80 (Candida krusei E28; 48 h) of 31.2 µM.
